# Assay results reported in patent US10597364B2, “Anthelmintic compounds, compositions and method of using thereof” (priority 2015, dated 2020).
# Test system: microfilaria of Dirofilaria immitis
# Assay: Method C: microfilaria of Dirofilaria immitis motility screen
# Format: cell-based
# Conditions: 10 μM, 24 hours, read-out: inhibition of the microfilaria's motility
row,SMILES,inhibition at 10 µM [%]
1,CN(c1ccc([N+](=O)[O-])c(C(F)(F)F)c1)[C@H]1CC[C@H](Oc2ccnc(N3CCN(C(=O)NC(C)(C)C)CC3)c2)CC1 [Compound 132],≥ 90

# Same assay, conditions: 5 ppm, 24 hours, read-out: inhibition of the microfilaria's motility
row,SMILES,inhibition at 5 ppm [%]
1,"CCCNC(=O)N1CCN(c2cccc(O[C@H]3CC[C@H](Nc4ccc([N+](=O)[O-])c(C(F)(F)F)c4)CC3)n2)CC1 [Compound 127, N-propyl-4-(6-[[4-[[4-nitro-3-(trifluoromethyl)phenyl]amino]cyclohexyl]oxy]pyridin-2-yl)piperazine-1-carboxamide]",≥ 90

# Same assay, conditions: 24 h, read-out: inhibition of the microfilaria's motility
SMILES,inhibition at 5 ppm [%],inhibition at 10 µM [%],inhibition at 1 ppm [%]
CCNC(=S)N1CCN(c2cccc(O[C@H]3CC[C@H](Nc4ccc([N+](=O)[O-])c(C(F)(F)F)c4)CC3)n2)CC1 [Compound 125],≥ 90,,
CNC(=O)N1CCN(c2cncc(O[C@H]3CC[C@H](Nc4ccc([N+](=O)[O-])c(C(F)(F)F)c4)CC3)c2)CC1 [Compound 154],,≥ 90,
CCOC(=O)N1CCN(c2cccc(O[C@H]3CC[C@H](Nc4ccc([N+](=O)[O-])c(C(F)(F)F)c4)CC3)n2)CC1 [Compound 110],≥ 90,,
CCC(=O)N1CCN(c2cccc(O[C@H]3CC[C@H](Nc4ccc([N+](=O)[O-])c(C(F)(F)F)c4)CC3)n2)CC1 [Compound 115],≥ 90,,
O=C(NC1CCCC1)N1CCN(c2cccc(O[C@H]3CC[C@H](Nc4ccc([N+](=O)[O-])c(C(F)(F)F)c4)CC3)n2)CC1 [Compound 147],,≥ 90,
CC(C)(C)NC(=S)N1CCN(c2ccnc(O[C@H]3CC[C@H](Nc4ccc([N+](=O)[O-])c(C(F)(F)F)c4)CC3)c2)CC1 [Compound 93],≥ 90,,
CCCOC(=O)N1CCN(c2cc(O[C@H]3CC[C@H](Nc4ccc(S(=O)(=O)C(F)(F)F)cc4)CC3)ccn2)CC1 [Compound 187],,≥ 90,
O=[N+]([O-])c1ccc(N[C@H]2CC[C@H](Oc3ccnc(N4CCN(CC(F)(F)F)CC4)c3)CC2)cc1C(F)(F)F [Compound 108],≥ 90,,
CC(C)(C)OC(=O)N1CCN(c2ncccc2O[C@H]2CC[C@H](Nc3ccc([N+](=O)[O-])c(C(F)(F)F)c3)CC2)CC1 [Compound 121],≥ 90,,
CCCCN1CCN(c2cccc(O[C@H]3CC[C@H](Nc4ccc([N+](=O)[O-])c(C(F)(F)F)c4)CC3)n2)CC1 [Compound 157],,≥ 90,
O=[N+]([O-])c1ccc(N[C@H]2CC[C@H](Oc3ccnc(N4CC5CN(c6ccc(C(F)(F)F)cn6)CC5C4)c3)CC2)cc1C(F)(F)F (stereo partly drawn) [Compound 140],,≥ 90,
O=C(Nc1ccc(C(F)(F)F)cc1)N1CCN(c2cccc(O[C@H]3CC[C@H](Nc4ccc([N+](=O)[O-])c(C(F)(F)F)c4)CC3)n2)CC1 [Compound 139],,≥ 90,
CC(C)(C)NC(=S)N1CCN(c2cncc(O[C@H]3CC[C@H](Nc4ccc([N+](=O)[O-])c(C(F)(F)F)c4)CC3)c2)CC1 [Compound 91],≥ 90,,
CCCNC(=S)N1CCN(c2cncc(O[C@H]3CC[C@H](Nc4ccc([N+](=O)[O-])c(C(F)(F)F)c4)CC3)c2)CC1 [Compound 119],≥ 90,,
O=C(Nc1ccc(F)cc1)N1CCN(c2ccnc(O[C@H]3CC[C@H](Nc4ccc([N+](=O)[O-])c(C(F)(F)F)c4)CC3)c2)CC1 [Compound 112],,≥ 90,
CNC(=O)N1CCN(c2ccnc(O[C@H]3CC[C@H](Nc4ccc([N+](=O)[O-])c(C(F)(F)F)c4)CC3)c2)CC1 [Compound 155],,≥ 90,
CNC(=S)N1CCN(c2cncc(O[C@H]3CC[C@H](Nc4ccc([N+](=O)[O-])c(C(F)(F)F)c4)CC3)c2)CC1 [Compound 128],≥ 90,,
CCN1CCN(c2cc(O[C@H]3CC[C@H](Nc4ccc([N+](=O)[O-])c(C(F)(F)F)c4)CC3)ccn2)CC1 [Compound 160],,≥ 90,

SMILES,inhibition at 5 ppm [%],inhibition at 10 µM [%],inhibition at 1 ppm [%]
CC(C)(C)OC(=O)N1CCN(c2cc(O[C@H]3CC[C@H](Nc4ccc(C#N)c(C(F)(F)F)c4)CC3)ccn2)CC1 [Compound 151],,≥ 90,
O=[N+]([O-])c1ccc(N[C@H]2CC[C@H](Oc3cccc(N4CCN(CC5CCCC5)CC4)n3)CC2)cc1C(F)(F)F [Compound 142],,≥ 90,
O=[N+]([O-])c1ccc(N[C@H]2CC[C@H](Oc3ccnc(N4CCN(Cc5ccc(C(F)(F)F)cc5)CC4)c3)CC2)cc1C(F)(F)F [Compound 56],≥ 90,,≥ 90
CC(C)(C)NC(=O)N1CCN(c2cccc(O[C@H]3CC[C@H](Nc4ccc([N+](=O)[O-])c(C(F)(F)F)c4)CC3)n2)CC1 [Compound 150],,≥ 90,
CNC(=S)N1CCN(c2cccc(O[C@H]3CC[C@H](Nc4ccc([N+](=O)[O-])c(C(F)(F)F)c4)CC3)n2)CC1 [Compound 130],≥ 90,,
CCNC(=O)N1CCN(c2cccc(O[C@H]3CC[C@H](Nc4ccc([N+](=O)[O-])c(C(F)(F)F)c4)CC3)n2)CC1 [Compound 131],≥ 90,,
CCNC(=S)N1CCN(c2cncc(O[C@H]3CC[C@H](Nc4ccc([N+](=O)[O-])c(C(F)(F)F)c4)CC3)c2)CC1 [Compound 124],≥ 90,,
CCCNC(=S)N1CCN(c2ccnc(O[C@H]3CC[C@H](Nc4ccc([N+](=O)[O-])c(C(F)(F)F)c4)CC3)c2)CC1 [Compound 99],≥ 90,,≥ 90
O=C(Nc1ccc(C(F)(F)F)cc1)N1CCN(c2ccnc(O[C@H]3CC[C@H](Nc4ccc([N+](=O)[O-])c(C(F)(F)F)c4)CC3)c2)CC1 [Compound 138],,≥ 90,
O=[N+]([O-])c1ccc(N[C@H]2CC[C@H](Oc3cncc(N4CCN(C(=S)Nc5ccc(F)cc5)CC4)c3)CC2)cc1C(F)(F)F [Compound 92],≥ 90,,
CCCNC(=S)N1CCN(c2cccc(O[C@H]3CC[C@H](Nc4ccc([N+](=O)[O-])c(C(F)(F)F)c4)CC3)n2)CC1 [Compound 120],≥ 90,,
O=S(=O)(c1ccc(N[C@H]2CC[C@H](Oc3cncc(N4CCN(c5ccc(C(F)(F)F)cn5)CC4)c3)CC2)cc1)C(F)(F)F [Compound 195],,≥ 90,
O=C(Cc1cc(C(F)(F)F)cc(C(F)(F)F)c1)N1CCN(c2cc(O[C@H]3CC[C@H](Nc4ccc([N+](=O)[O-])c(C(F)(F)F)c4)CC3)ccn2)CC1 [Compound 137],,≥ 90,
CCCCC(=O)N1CCN(c2cccc(O[C@H]3CC[C@H](Nc4ccc([N+](=O)[O-])c(C(F)(F)F)c4)CC3)n2)CC1 [Compound 136],,≥ 90,
CC(C)(C)OC(=O)N1CCN(c2cc(O[C@H]3CC[C@H](Nc4ccc(S(=O)(=O)C(F)(F)F)cc4)CC3)ccn2)CC1 [Compound 186],,≥ 90,
CC(C)(C)NC(=S)N1CCN(c2cccc(O[C@H]3CC[C@H](Nc4ccc([N+](=O)[O-])c(C(F)(F)F)c4)CC3)n2)CC1 [Compound 116],≥ 90,,
CNC(=S)N1CCN(c2ccnc(O[C@H]3CC[C@H](Nc4ccc([N+](=O)[O-])c(C(F)(F)F)c4)CC3)c2)CC1 [Compound 129],≥ 90,,
CCCN1CCN(c2cccc(O[C@H]3CC[C@H](Nc4ccc([N+](=O)[O-])c(C(F)(F)F)c4)CC3)n2)CC1 [Compound 158],,≥ 90,

# Test system: Haemonchus contortus
# Assay: Method A: Haemonchus contortus L1 larval development/motility screen in microtitre plate
# Format: cell-based
# Conditions: 96 h, read-out: motility inhibition
row,SMILES,inhibition at 5 µM [%]
1,CC(C)(C)OC(=O)N1CCN(c2cncc(O[C@H]3CC[C@H](Nc4ccc(C#N)c(C(F)(F)F)c4)CC3)c2)CC1 [Compound 50],≥ 90
2,O=C(CC1CCCC1)N1CCN(c2cncc(O[C@H]3CC[C@H](Nc4ccc([N+](=O)[O-])c(C(F)(F)F)c4)CC3)c2)CC1 [Compound 20],≥ 90
